According to patent US20240115681A1 (priority 2022, published 2024):
In the oligonucleotide strings, read from the 5' end, every base follows the letter of its sugar. An asterisk marks phosphorothioate; unmarked linkages are phosphodiester. Other units and linkages are bracketed, terminal groups are in braces. A string of capitals states the bases alone. d = 2'-deoxy (DNA)

Legend:
Mouse BMDCs [1] = test: Cytokine expression in BMDCs by RT-qPCR; assay type: cell-based; conditions: 4 h (FIG. 7); for expression of cytokine genes (TNF-α, IL-1β, IL-6, IL-12A, IL-12B, IL-23A, IFN-β, IFN-γ): CpG-2722 5 μg/ml, c-di-AM(PS)2 1 μg/ml
[2] = test system: mouse embryonic fibroblasts (MEFs); test: Cytokine expression in MEFs by RT-qPCR; assay type: cell-based; conditions: CpG-2722 5 μg/ml, c-di-AM(PS)2 1 μg/ml, 4 h (FIG. 10)
recombinant S protein = test system: recombinant S protein; set-up: species or system SARS-CoV-2; conditions: in vivo
Mouse BMDCs [3] = test: Surface marker expression on BMDCs by flow cytometry; assay type: cell-based; conditions: CpG-2722 5 μg/ml, c-di-AM(PS)2 1 μg/ml, 24 h, CD11c+ cells (FIG. 6)
Mouse splenocytes = test: Cytokine expression in splenocytes by RT-qPCR; assay type: cell-based; conditions: 4 h (FIG. 8)
splenocytes = test: Antigen-dependent T helper responses: cytokine ELISA of RBD-stimulated splenocytes from immunized mice; assay type: in vivo, mouse; conditions: splenocytes of intramuscularly immunized mice stimulated with RBD for 96 h (FIG. 5A-5C)
[4] = test system: NHRI-HN1 syngeneic orthotopic cancer animal model; set-up: species or system mice; conditions: mouse, in vivo
Mouse PBMCs = test: Cytokine expression in PBMCs by RT-qPCR; assay type: cell-based; conditions: CpG-2722 5 μg/ml, c-di-AM(PS)2 1 μg/ml, 4 h (FIG. 9)
[5] = test system: influenza VLP (viral like particle); test: Antibody titers after intranasal influenza VLP/adjuvant vaccines in BALB/c mice; conditions: intranasal days 0, 15, 29, after the 3rd vaccination (day 42) (FIG. 15B)

Compound | expression of IFN-α (Mouse BMDCs [1]) | expression of IL-2 (Mouse BMDCs [1]) | expression of cytokine genes (TNF-α, IL-1β, IL-6, IL-12A, IL-12B, IL-23A, IFN-β, IFN-γ) (Mouse BMDCs [1]) | cytokine gene expression (TNF-α, IL-1β, IL-6, IL-12B, IL-23A, IFN-β) [2] | anti-S protein IgG titer (recombinant S protein) | serum anti-S IgA production (recombinant S protein) | surface expression of CCR7 (Mouse BMDCs [3]) | surface expression of CD80 (Mouse BMDCs [3]) | surface expression of CD86 (Mouse BMDCs [3]) | expression of IFN-β, IL-4, IL-5, and IL-13 (Mouse splenocytes) | expression of IL-12A and IL-12B (Mouse splenocytes) | antigen-dependent Th responses (IFN-γ for Th1, IL-17A for Th17, IL-4, IL-5, IL-13 for Th2) (splenocytes) | tumor growth suppression [4] | expression of IL-1β (Mouse BMDCs [1]) | surface expression of CD40 (Mouse BMDCs [3]) | mRNA expression of TNF-α, IL-1β, IL-6, IL-12A, IL-12B, IL-23A, IFN-β, IFN-γ (Mouse PBMCs) | expression of TNF-α, IL-1β, IL-6, IL-12A, IL-12B, IL-23A, IFN-β, IFN-γ (Mouse splenocytes; CpG-2722 5 μg/ml, c-di-AM(PS)2 1 μg/ml) | anti-VLP IgG titer [5]
Nc1ncnc2c1ncn2[C@@H]1O[C@@H]2COP(O)(=S)O[C@@H]3C(O)[C@@H](COP(O)(=S)O[C@H]2[C@H]1O)O[C@H]3n1cnc2c(N)ncnc21 (some centres unmarked) [2′3′-c-di-AM(PS)2] | induced the expression of IFN-α | not induced by either of these two agonists alone | induced the expressions of TNF-α, IL-1β, IL-6, IL-12A, IL-12B, IL-23A, IFN-β, and IFN-γ genes | induced the gene expression of TNF-α, IL-1β, IL-6, IL-12B, IL-23A, and IFN-β | became apparent | did not elicit the production of serum anti-S IgA | none of these two agonists activated expression of the CCR7 | induced the expression of CD80 and CD86 | induced the expression of CD80 and CD86 | induced the expression of IFN-β, IL-4, IL-5, and IL-13 more potently | not induced | induced an antigen-dependent Th2 response | – | – | – | – | – | –
Nc1ncnc2c1ncn2[C@@H]1O[C@@H]2COP(=O)(O)O[C@@H]3[C@H](O)[C@@H](COP(=O)(O)O[C@H]2[C@H]1O)O[C@H]3n1cnc2c(N)ncnc21 [2′3′-c-di-AMP] | – | – | – | – | – | – | – | – | – | – | – | – | some level of tumor growth suppression | – | – | – | – | –
CpG-2722 (DNA dG*dT*dT*dG*dT*dC*dG*dT*dT*dT*dT*dT*dT*dG*dT*dC*dG*dT*dT) | – | not induced by either of these two agonists alone | induced the expressions of TNF-α, IL-1β, IL-6, IL-12A, IL-12B, IL-23A, IFN-β, and IFN-γ genes | not observed | became apparent | did not elicit the production of serum anti-S IgA | none of these two agonists activated expression of the CCR7 | – | – | – | – | preferentially induced antigen-dependent Th1 and Th17 responses | some level of tumor growth suppression | strongly induced | induced expression of CD40 | higher induction by CpG-2722 treatment alone than that induced by the c-di-AM(PS)2 treatment alone | more potent than c-di-AM(PS)2 | does not further increase the IgG titer
